The target in this test is T1, Tau aggregates in P301L-Tau-FL-GFP HEK293 cells (Homo sapiens, UniProt P10636, P618L).
T1 construct: express full-length human tau T40 (2N4R) carrying the P301L mutation with a GFP tag; expressed in transfected cells
Nature of the test: Tau degradation assay (APNmAb005 ELISA-based Tau aggregation assay). The note with it: 1 μM of compound, 24 hours, P301L-Tau-FL-GFP HEK293 cells seeded with rTg4510 brain lysate; read-out: Activity (reduction of tau aggregates). The class given is cell-based. The protocol: (A). Cell-based model of Tau inclusion formation: Six month old rTg4510 mouse brain lysates were used as the source of tau seeds, prepared as described in Example 26 above. P301L-Tau-FL-GFP HEK293 cells represent HEK293 cells express full-length human tau T40 (2N4R) carrying the P301L mutation with a GFP tag (P301L-Tau-FL-GFP). 1×10^6 of P301L-Tau-FL-GFP HEK293 cells were cultured on a 6-well plate in culture medium containing DMEM/F-12 (Gibco) supplemented with 10% fetal bovine serum (FBS) (Gibco), 1% Penicillin-Streptomycin (Gibco) and 0.5 mg/ml geneticin (Thermo Fisher Scientific) for 24 hours to reach 70-90% confluency, indicating the cells were ready for transfection. 50 μg of 6-month-old rTg4510 mouse brain lysate was diluted in 400 μL of serum free medium and mixed with 16 μL of lipofectamine 3000 reagent (Thermo Fisher Scientific) diluted in 400 μl of serum free medium. A solution mixture of rTg4510 brain lysate and lipofectamine 3000 was incubated at room temperature for 25 min. The culture media were removed, and then a solution mixture of rTg4510 lysate and lipofectamine 3000 was added to the cells for transfection. The solution mixture was incubated at room temperature for five hours, followed by medium change to 10% fetal bovine serum (FBS). After two-day incubation, Tau aggregates (Tau spots) were induced and images were acquired by ImageXpress Micro Confocal high-content imaging system (Molecular Devices) as described in Example 52 above. Analysis was performed by two customized modules in MetaXpress software (Molecular Devices) for aggregated tau analysis. Output included cell numbers, numbers of tau spots, average intensity of tau spots, and average size of tau spots.
(B). Compound treatment: 100 μL of 3×10^4 cells comprising Tau aggregates, prepared as described above in step (A), were plated on a 96-well plate coated with poly-D-lysine (BD Biosciences) and cultured for 24 hours. Compounds to be tested were dissolved in culture medium containing 0.1% DMSO. Each of test compounds in the concentration of 1, 0.2 and 0.04 μM was added to the cells comprising Tau aggregates and incubated at 37° C. for 24 hours. After that, culture medium was removed, cells were washed with PBS solution and then lysed using 30 μL of lysis buffer (PBS containing 0.3% Triton X-100 and 400 mM NaCl) for one hour at 4° C., and then cell lysate was diluted by 170 μl of PBS containing 400 mM NaCl. Cell lysate was filtrated by a […] filtration plate (Pall) and applied for Tau aggregation assay.
(C). Control cell lysate: control cell lysate was collected from non-seeded cells.
(D). ELISA-based Tau aggregation assay: APNmAb005 ELISA kit for Tau aggregation assay was designed and developed to detect abnormal tau aggregates in buffered solution or cell lysate by using anti-Tau APNmab005 as capture and detection antibody. This antibody is a highly specific antibody bound to human tau aggregates accumulated in mammalian cells. APNmAb005 is recited in PCT Patent Application No. PCT/M2020/057415, filed Aug. 5, 2020, which is incorporated herein by reference.
0.15 μg of APNmAb005 in 100 mM sodium carbonate buffer (pH 9.6) was coated on a high-binding polystyrene 96-well microplate (Greiner Bio-One) at 4° C. overnight. The microplate was washed with PBS followed by treatment with Intercept (PBS) blocking buffer (LI-COR) at room temperature for 2 hours. After that, the microplate was washed with PBS, and then the cell lysate with compound treatment, prepared as described above in step (C), was added into each well of the microplate and incubated at room temperature for 2 hours. The microplate was washed with PBS and then incubated with HRP-conjugated secondary antibody APNmAb005 at room temperature for 3 hours. HRP-conjugated secondary antibody APNmAb005 was prepared using HRP conjugation kit (Abcam,ab102890). The microplate was then washed with PBS and incubated with 100 μL of horseradish peroxidase (HRP) substrate at room temperature. […]
For orientation: In an ELISA, binding on a coated surface is turned into a signal by an enzyme label.

Structures are written as SMILES.

T1 sequence (P10636 1-441 isoform P10636-8 P301L): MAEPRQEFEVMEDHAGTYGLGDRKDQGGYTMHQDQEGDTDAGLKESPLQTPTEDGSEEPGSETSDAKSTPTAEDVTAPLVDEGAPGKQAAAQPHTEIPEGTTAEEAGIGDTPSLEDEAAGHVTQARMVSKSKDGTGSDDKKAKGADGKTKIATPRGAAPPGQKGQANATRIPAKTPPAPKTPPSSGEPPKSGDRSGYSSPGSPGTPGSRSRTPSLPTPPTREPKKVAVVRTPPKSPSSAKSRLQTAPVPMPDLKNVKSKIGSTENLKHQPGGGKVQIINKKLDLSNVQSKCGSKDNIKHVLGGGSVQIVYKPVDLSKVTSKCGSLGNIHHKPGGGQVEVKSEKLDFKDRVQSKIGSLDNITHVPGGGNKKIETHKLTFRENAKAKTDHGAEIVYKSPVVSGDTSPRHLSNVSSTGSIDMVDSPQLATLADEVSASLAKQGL

For `CN(C)c1ccc(-c2ccc(-c3nc4ccc(NCCOCCOc5ccc6c(c5)CN(C5CCC(=O)NC5=O)C6=O)cc4s3)cc2)cn1` (stereo not shown) [Compound 160313, 3-[6-[2-[2-[[2-[4-[6-(dimethylamino)pyridin-3-yl]phenyl]-1,3-benzothiazol-6-yl]amino]ethoxy]ethoxy]-3-oxo-1H-isoindol-2-yl]piperidine-2,6-dione], the inhibition at 1 µM was < 10%.

Values taken from patent US20220354835A1, “COMPOUNDS FOR DEGRADING TAU PROTEIN AGGREGATES AND USES THEREOF” (Aprinoia Therapeutics Limited, priority 2019, published 2022).
